Experiment [1] has as its system exon 19 deletion mutation. Particulars: cited from earlier work.
The target of experiment [2] is EGFR L858R mutant expressing Ba/F3 cells (Homo sapiens, UniProt P00533, L858R, cells depend on it). The experiment in a line: CellTiter-Glo cell viability, Ba/F3 EGFR mutant. The format is cell-based, mouse. Particulars: read-out: IC50 (nM) L858R. On the technique in general: In ATP-based viability assays light output follows the ATP content of the culture.
Protocol: (§1) Ba/F3 mutation lines were prepared in the same manner as above to determine the cell viabilities by CellTiter-Glo assay.
Experiment [3] concerns the target EGFR T790M/L858R mutant expressing Ba/F3 cells (Homo sapiens, UniProt P00533, T790M/L858R, cells depend on it). The experiment in a line: CellTiter-Glo cell viability, Ba/F3 EGFR mutant. Particulars: Table 5, ALK inhibitors, read-out: IC50 (nM) T/L. The format is cell-based, mouse.
Protocol: as §1
For experiment [4], the system named is EGFR mutant expressing Ba/F3 cells. The experiment in a line: Cell viability, ALK inhibitors on Ba/F3 with any of the EGFR mutants (summary statements). The format is cell-based, mouse. Conditions: FIG. 6A-D, FIG. 7A-D.
The test system of experiment [5] is EGFR signal transductions in EGFR mutants expressing Ba/F3 cells. The experiment in a line: Western blotting of EGFR signal transductions in EGFR mutants expressing Ba/F3 cells (summary statements). The format is cell-based, mouse. Particulars: FIG. 8A-D; L858R-based lines, not shown.
Experiment [6] concerns the target EGFR exon 19 deletion mutant (del19) expressing Ba/F3 cells (Homo sapiens, UniProt P00533, DEL746-750, cells depend on it). The experiment in a line: CellTiter-Glo cell viability, Ba/F3 EGFR mutant.
Experiment [7] deals with phosphorylation of EGFR and downstream signal transductions in parental line PC9. The experiment in a line: Western blotting of EGFR signal, PC9. Conditions: FIG. 10A, 10D. The experiment is classed as cell-based, human. A general note: A western blot detects proteins with antibodies after separation by electrophoresis.
In experiment [8] the test system is phosphorylation of EGFR and downstream signal transductions in T790M/exon 19 deletion mutant expressing PC9 cell line. The experiment in a line: Western blotting of EGFR signal, PC9 T790M. Conditions: FIG. 10B, 10D. The experiment is classed as cell-based, human.
In experiment [9] the test system is phosphorylation of EGFR and downstream signal transductions in triple-mutant expressing PC9 cell line. The experiment in a line: Western blotting of EGFR signal, PC9 triple-mutant. The format is cell-based, human. Particulars: FIG. 10C, 10D.
The target of experiment [10] is EGFR T790M/exon 19 deletion mutant (T790M/del19) expressing Ba/F3 cells (Homo sapiens, UniProt P00533, DEL746-750/T790M, cells depend on it). The experiment in a line: CellTiter-Glo cell viability, Ba/F3 EGFR mutant.
Experiment [11] has as its system phosphorylation of EGFR and downstream signal transductions in T790M/del19 Ba/F3 cells. The experiment in a line: Western blotting of EGFR phosphorylation and downstream signal. The format is cell-based, mouse. Particulars: 10, 100, 1000 nM; FIG. 2E.
The test system of experiment [12] is phosphorylation of EGFR and downstream signal transductions in L858R mutant expressing Ba/F3 cells. Described as above. Particulars: FIG. 4A. The experiment is classed as cell-based, mouse.
For experiment [13], the system named is phosphorylation of EGFR and downstream signal transductions in T790M/L858R mutant expressing Ba/F3 cells. Described as above. The format is cell-based, mouse. Particulars: FIG. 4B.
For experiment [14], the system named is human lung cancer cell line PC9 (EGFR exon 19 deletion mutant). The format is cell-based.
The subject of experiment [15] is T790M/exon 19 deletion mutant expressing PC9 cell line. The experiment is classed as cell-based, human.
The subject of experiment [16] is A431 wherein EGFR is amplified. The experiment in a line: Cell growth of wild type EGFR expressing cells. The format is cell-based, human. Conditions: FIG. 11.
Protocol: The analysis was carried out using A431 wherein EGFR is amplified and A549 and H460 which have a mutation at K-ras. A431 is a cell line derived from a human epithelioid cell cancer and A549 and H460 are cell lines derived from human lung cancers. Note that, EGFR has no mutations despite A431 being amplified, and EGFR also has no mutations in A549 and H460.
The subject of experiment [17] is EGFR T790M/exon19 deletion mutant expressing PC9 cells. The experiment in a line: Balb-c nu/nu mice transplanted with EGFR mutant expressing PC9. The format is in vivo, mouse.
Protocol: The tumor volume was measured in the same manner as above.
The results are shown from 2 mice per group.
In experiment [18] the test system is Ba/F3 cells expressing the T790M/del19 mutant. The experiment in a line: SCID mice transplanted with EGFR mutant expressing Ba/F3. Conditions: 50 mg/kg osimertinib, 75 mg/kg brigatinib, oral once daily; FIG. 12B.
The subject of experiment [19] is adenocarcinoma. Conditions: cited from earlier work.
The mark [20] stands for this setting: read-out: IC50 (nM) Del19, Table 4, ALK inhibitors.
Setting [21] is: read-out: IC50 (nM) T/D, Table 4, ALK inhibitors, T790M/del19.

Structures are written as SMILES. Values joined by “and” are separate entries in the source; they are usually repeats but may differ in a detail not shown here. Equal values may be shown once. Read-outs that look alike come from different tables or passages of the source.

EGFR T790M/L858R mutant expressing Ba/F3 cells, sequence (P00533 whole entry T790M/L858R): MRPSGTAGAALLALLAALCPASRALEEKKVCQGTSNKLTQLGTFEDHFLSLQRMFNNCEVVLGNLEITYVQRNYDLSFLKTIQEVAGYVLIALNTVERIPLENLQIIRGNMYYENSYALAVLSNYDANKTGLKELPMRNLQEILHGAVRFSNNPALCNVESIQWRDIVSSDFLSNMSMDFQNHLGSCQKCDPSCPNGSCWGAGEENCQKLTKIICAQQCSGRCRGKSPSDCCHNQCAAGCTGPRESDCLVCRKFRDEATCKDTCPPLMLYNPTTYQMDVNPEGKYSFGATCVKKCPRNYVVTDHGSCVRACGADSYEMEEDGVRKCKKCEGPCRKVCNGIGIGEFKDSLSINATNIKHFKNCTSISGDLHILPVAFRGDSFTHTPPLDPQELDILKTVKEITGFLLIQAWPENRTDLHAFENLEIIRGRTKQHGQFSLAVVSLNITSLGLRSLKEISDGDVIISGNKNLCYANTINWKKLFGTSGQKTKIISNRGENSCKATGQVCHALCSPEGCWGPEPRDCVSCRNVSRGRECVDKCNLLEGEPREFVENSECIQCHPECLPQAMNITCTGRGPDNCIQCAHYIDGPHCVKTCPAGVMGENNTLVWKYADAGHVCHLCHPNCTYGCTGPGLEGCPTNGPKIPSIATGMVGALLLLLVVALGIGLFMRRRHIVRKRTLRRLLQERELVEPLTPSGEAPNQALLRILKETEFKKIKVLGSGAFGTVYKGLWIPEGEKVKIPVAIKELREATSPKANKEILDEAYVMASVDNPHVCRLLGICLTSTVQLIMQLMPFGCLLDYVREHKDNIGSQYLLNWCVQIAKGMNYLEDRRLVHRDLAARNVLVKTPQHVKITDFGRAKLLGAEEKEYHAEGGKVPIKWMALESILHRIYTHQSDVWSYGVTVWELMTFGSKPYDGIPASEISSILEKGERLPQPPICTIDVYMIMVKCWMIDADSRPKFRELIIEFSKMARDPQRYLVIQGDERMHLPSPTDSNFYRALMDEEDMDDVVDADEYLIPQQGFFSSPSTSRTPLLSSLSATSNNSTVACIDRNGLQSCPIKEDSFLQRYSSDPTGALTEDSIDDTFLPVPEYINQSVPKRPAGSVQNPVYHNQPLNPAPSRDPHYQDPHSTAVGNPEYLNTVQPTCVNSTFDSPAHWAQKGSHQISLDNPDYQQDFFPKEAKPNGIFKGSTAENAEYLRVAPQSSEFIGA
EGFR L858R mutant expressing Ba/F3 cells, sequence (P00533 whole entry L858R): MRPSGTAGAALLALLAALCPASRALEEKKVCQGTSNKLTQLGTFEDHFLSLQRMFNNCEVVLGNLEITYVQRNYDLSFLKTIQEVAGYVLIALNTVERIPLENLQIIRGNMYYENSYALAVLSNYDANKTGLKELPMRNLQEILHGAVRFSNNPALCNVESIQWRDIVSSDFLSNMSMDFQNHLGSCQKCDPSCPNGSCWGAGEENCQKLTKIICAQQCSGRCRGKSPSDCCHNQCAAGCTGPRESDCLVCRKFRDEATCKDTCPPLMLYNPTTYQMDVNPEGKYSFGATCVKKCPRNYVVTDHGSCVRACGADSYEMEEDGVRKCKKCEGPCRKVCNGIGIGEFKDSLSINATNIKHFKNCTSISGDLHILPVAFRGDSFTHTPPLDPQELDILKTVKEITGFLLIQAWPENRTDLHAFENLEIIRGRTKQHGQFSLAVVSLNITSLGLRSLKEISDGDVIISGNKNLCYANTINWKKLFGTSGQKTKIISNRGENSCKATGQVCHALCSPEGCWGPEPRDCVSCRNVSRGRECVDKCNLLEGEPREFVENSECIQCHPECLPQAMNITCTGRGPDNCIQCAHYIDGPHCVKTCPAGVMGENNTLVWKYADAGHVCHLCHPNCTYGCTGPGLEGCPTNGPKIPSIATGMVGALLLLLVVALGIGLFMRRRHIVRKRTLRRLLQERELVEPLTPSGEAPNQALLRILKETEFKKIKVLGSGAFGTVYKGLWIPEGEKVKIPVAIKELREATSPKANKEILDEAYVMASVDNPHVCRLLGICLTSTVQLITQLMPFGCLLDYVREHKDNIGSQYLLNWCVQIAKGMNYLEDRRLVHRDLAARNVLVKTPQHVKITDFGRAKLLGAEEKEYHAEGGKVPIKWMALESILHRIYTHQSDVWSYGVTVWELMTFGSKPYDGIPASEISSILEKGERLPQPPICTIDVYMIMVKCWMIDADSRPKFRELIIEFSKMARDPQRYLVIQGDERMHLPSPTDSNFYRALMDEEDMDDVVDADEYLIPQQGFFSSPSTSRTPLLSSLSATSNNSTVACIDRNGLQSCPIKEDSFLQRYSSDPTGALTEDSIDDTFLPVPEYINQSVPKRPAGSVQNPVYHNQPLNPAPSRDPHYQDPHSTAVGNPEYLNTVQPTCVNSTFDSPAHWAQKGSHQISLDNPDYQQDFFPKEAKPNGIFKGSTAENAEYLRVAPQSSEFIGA
EGFR T790M/exon 19 deletion mutant (T790M/del19) expressing Ba/F3 cells, sequence (P00533 with tags, fused parts or gaps DEL746-750/T790M): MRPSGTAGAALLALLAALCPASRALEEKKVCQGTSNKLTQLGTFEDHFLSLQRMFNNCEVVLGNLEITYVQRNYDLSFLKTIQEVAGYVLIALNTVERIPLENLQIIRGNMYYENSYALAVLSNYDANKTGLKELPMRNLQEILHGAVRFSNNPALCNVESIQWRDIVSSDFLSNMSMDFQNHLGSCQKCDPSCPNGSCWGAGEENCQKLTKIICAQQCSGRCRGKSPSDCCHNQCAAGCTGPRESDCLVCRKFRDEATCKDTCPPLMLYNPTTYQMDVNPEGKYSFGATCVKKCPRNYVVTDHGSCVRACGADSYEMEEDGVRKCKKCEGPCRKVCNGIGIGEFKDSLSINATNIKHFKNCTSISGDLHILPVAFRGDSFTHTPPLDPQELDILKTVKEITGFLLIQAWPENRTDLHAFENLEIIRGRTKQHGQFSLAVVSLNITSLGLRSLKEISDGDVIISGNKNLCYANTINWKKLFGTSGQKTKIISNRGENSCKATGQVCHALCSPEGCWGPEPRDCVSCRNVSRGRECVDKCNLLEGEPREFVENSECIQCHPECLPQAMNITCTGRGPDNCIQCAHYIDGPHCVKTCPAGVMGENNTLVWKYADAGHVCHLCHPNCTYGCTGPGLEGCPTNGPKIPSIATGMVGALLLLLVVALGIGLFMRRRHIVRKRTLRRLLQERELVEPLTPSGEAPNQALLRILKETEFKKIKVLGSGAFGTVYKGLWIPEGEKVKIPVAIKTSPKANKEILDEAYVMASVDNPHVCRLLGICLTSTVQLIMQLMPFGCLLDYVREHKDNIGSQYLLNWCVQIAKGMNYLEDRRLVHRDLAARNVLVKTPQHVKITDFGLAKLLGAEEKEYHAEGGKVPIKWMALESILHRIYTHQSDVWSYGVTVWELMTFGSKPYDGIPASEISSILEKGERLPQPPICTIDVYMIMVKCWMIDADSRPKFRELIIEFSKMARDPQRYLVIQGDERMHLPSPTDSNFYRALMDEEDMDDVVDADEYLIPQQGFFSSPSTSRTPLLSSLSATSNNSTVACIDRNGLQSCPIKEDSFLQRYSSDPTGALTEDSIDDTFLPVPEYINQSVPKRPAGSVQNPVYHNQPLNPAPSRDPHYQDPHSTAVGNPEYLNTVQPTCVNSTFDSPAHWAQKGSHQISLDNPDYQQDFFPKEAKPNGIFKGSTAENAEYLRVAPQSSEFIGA
EGFR exon 19 deletion mutant (del19) expressing Ba/F3 cells, sequence (P00533 with tags, fused parts or gaps DEL746-750): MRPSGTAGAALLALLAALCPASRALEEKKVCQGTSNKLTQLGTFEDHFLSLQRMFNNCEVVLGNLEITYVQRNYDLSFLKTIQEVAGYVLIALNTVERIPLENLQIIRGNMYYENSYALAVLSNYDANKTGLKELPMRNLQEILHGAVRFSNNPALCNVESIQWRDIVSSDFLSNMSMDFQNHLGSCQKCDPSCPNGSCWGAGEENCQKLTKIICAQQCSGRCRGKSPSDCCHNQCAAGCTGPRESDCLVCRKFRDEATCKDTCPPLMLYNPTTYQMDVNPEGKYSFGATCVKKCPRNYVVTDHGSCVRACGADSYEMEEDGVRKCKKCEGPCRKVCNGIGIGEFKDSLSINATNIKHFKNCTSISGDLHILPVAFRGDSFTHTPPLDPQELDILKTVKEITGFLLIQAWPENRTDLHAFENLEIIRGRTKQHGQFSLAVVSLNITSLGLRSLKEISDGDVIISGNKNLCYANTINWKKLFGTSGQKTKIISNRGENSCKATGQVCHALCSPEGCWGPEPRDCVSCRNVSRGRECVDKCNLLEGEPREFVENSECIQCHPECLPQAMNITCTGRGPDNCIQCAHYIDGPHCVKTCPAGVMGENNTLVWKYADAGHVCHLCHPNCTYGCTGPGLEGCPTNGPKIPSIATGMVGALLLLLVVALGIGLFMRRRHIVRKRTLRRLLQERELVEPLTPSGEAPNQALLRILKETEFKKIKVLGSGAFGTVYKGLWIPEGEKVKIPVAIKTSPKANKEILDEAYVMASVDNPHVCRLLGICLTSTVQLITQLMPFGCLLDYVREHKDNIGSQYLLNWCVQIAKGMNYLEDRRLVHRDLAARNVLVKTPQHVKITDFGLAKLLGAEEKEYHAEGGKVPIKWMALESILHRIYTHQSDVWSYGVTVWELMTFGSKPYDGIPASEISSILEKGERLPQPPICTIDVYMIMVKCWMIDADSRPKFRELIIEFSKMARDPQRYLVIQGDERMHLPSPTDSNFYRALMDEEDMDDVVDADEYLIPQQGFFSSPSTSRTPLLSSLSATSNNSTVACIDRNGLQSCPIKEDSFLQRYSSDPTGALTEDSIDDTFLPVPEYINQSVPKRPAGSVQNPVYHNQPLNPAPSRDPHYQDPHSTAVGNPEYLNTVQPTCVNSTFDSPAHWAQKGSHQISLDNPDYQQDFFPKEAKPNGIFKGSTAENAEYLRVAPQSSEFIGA

For the compound `O=C(Nc1nccs1)C(c1cc(F)ccc1O)N1Cc2ccccc2C1=O` (centres unmarked) [EAI045], in experiment [1], the “effectiveness on the exon 19 deletion mutation (in words)” value is listed as “not effective on the exon 19 deletion mutation”.

In the case of `Cc1cc(Nc2ncc(Cl)c(Nc3ccccc3S(=O)(=O)C(C)C)n2)c(OC(C)C)cc1C1CCNCC1` [ceritinib], the GI50 in [2] (Table 5, ALK inhibitors) came to 1160 nM; in experiment [3] it was 685 nM; in experiment [6] (setting [20]), 524 nM. Besides, in experiment [4], the “cell growth suppression effect on Ba/F3 with EGFR mutant having any of the mutations (in words)” value (from here on “cell growth suppression effect on Ba/F3”) was “did not substantially demonstrate the cell growth suppression effect”. Moreover, the “inhibitory activity against the EGFR signal transductions (in words)” value (from here on “inhibitory activity”) in experiment [5] was “did not substantially demonstrate the inhibitory effect on the EGFR signal transductions even when treated at a high concentration of 1 μM”.

As to `COc1cc(N2CCC(N)CC2)ccc1Nc1ncc(Cl)c(-c2c[nH]c3ccccc23)n1` [AZD3463], the GI50 in experiment [2] (Table 5, ALK inhibitors) came out at 287 nM; in experiment [3] it was 184 nM; in [6] (setting [20]) it was 90 nM; in [10] (setting [21]), 175 nM. Moreover, the “cell growth suppression effect on Ba/F3” value in experiment [4] was “strong cell growth suppression effects”. Besides, the entries for the “suppression of phosphorylation of EGFR and downstream signal (in words)” value (“suppression of phosphorylation … (in words)” below) in experiment [7], in experiment [8] and in experiment [9] were “confirmed to have the effect of suppressing the phosphorylation of EGFR”, “confirmed to have the effect of suppressing the phosphorylation of EGFR” and “had the effect of suppressing the phosphorylation of the EGFR signal transductions”, respectively.

For `COc1cc(N2CCC(N3CCN(C)CC3)CC2)ccc1Nc1ncc(Cl)c(Nc2ccccc2P(C)(C)=O)n1` [brigatinib], the GI50 in experiment [2] (egfr l858r mutant expressing ba/f3 cells) is 207 nM and 133 nM; in experiment [6] (read-out: IC50 (nM) Del19, egfr exon 19 deletion mutant (del19) expressing ba/f3 cells), 43.7 nM; in [6] (read-out: IC50 (nM) del19, egfr exon 19 deletion mutant (del19) expressing ba/f3 cells) it was 43.7 nM; in experiment [10] (read-out: IC50 (nM) T790M/del19, egfr t790m/exon 19 deletion mutant (t790m/del19) expressing ba/f3 cells) it was 150 nM; in experiment [10] (read-out: IC50 (nM) T/D, egfr t790m/exon 19 deletion mutant (t790m/del19) expressing ba/f3 cells), 150 nM.

`COc1cc(N2CCC(N3CCN(C)CC3)CC2)ccc1Nc1ncnc(Nc2ccccc2S(=O)(=O)C(C)C)n1` [ASP3026]: the GI50 in [2] (Table 5, ALK inhibitors) was found to be 948 nM; in experiment [3], 1690 nM; in experiment [6] (setting [20]), 450 nM; in experiment [10] (setting [21]) it was 2170 nM. Also, in [4], the “cell growth suppression effect on Ba/F3” value is listed as “did not substantially demonstrate the cell growth suppression effect”. Further, in experiment [5], the “inhibitory activity” value is reported as “did not substantially demonstrate the inhibitory effect on the EGFR signal transductions even when treated at a high concentration of 1 μM”.

Take `C=CC(=O)Nc1cc(Nc2nccc(-c3cn(C)c4ccccc34)n2)c(OC)cc1N(C)CCN(C)C` [osimertinib]: the “suppression of phosphorylation … (in words)” value in [11] is “strongly suppressed the phosphorylation of EGFR”; in experiment [12], “suppression effect, despite being weaker than afatinib”; in [13], “strongest suppression effect”; in experiment [7], “also very strongly suppressed the phosphorylation”; in experiment [8] it was “demonstrated the effects of suppressing the phosphorylation”; in [9], “neither of afatinib, osimertinib, or gefitinib demonstrated the suppression effect”. Also, the “cell growth suppression effect (in words)” value is on record as “demonstrated the cell growth suppression effects” in [14] and “extremely strong cell growth suppression effect” in experiment [15]. The “cell growth suppression (in words)” value in experiment [16] is “suppress the cell growth”. For the same compound, in experiment [17] (50 mg/kg osimertinib, 75 mg/kg brigatinib, oral once daily, FIG. 13A), the “effect on the tumor growth (tumor volume, in words)” value is “notable effect on the tumor growth”. Also, in experiment [17] (FIG. 13B), the “survival (Kaplan-Meier, in words)” value is “alive during the observation period”. The “tumor growth suppression effect (tumor volume, in words)” value in experiment [18] was “had the effect”.

For the compound `COc1cc(N2CCC(N(C)C)CC2)ccc1Nc1ncc(Cl)c(Nc2ccccc2P(C)(C)=O)n1` [AP26113-analogue, AP26113-analog], the GI50 in experiment [2] (Table 5, ALK inhibitors) turned out to be 92.1 nM; in [3], 36 nM; in experiment [6] (setting [20]), 36.9 nM; in experiment [10] (setting [21]), 139 nM. Further, the “cell growth suppression effect on Ba/F3” value in [4] was “strong cell growth suppression effects”. For the same compound, the “inhibitory activity” value in [5] was “demonstrated the inhibitory activity against the EGFR signal transductions”. In addition, the “suppression of phosphorylation … (in words)” value in experiment [7] was “the effect was weaker compared to afatinib”; in experiment [8], “equal suppression effect to brigatinib”; in [9], “demonstrated the suppression effects on the phosphorylation of EGFR”.

Turning to `COc1cc(N2CCC(N3CCN(C)CC3)CC2)ccc1Nc1ncc(Cl)c(Nc2ccccc2S(=O)(=O)C(C)C)n1` [TAE684], the “cell growth suppression effect on Ba/F3” value in [4] was “did not substantially demonstrate the cell growth suppression effect”. For the same compound, in [5], the “inhibitory activity” value is recorded as “did not substantially demonstrate the inhibitory effect on the EGFR signal transductions even when treated at a high concentration of 1 μM”.

Regarding `COc1cc2ncnc(Nc3ccc(F)c(Cl)c3)c2cc1OCCCN1CCOCC1` [gefitinib], the “PFS (progression-free survival)” value in experiment [19] (EGFR gene mutation-positive group) is recorded as 9.5 months; in experiment [19] (mutation negative group), 1.5 months.

The values above are taken from patent US10813933B2, “Therapeutic agent for lung cancer that has acquired EGFR-TKI resistance” (JAPANESE FOUNDATION FOR CANCER RESEARCH, priority 2016, dated 2020).
